Assays:
ARPE-19 = assay: Protective effect for retinal pigment epithelial cells against oxidative stress by hydrogen peroxide; type: cell-based, human; details: all-trans form content 280 μM, 14 h, then 750 μM hydrogen peroxide 2 h, FIG. 4, n=3
Excerpt: The involvement of oxidative stress in ophthalmologic diseases has been widely reported. Such involvement has been observed in, in addition to glaucoma and cataract, retinal diseases such as retinal diseases due to diabetes, hypertension, hyperlipemia, etc., age-related macular degeneration, retinopathy of prematurity, retinal vascular occlusion, retinal light damage, etc. (Nippon Ganka Gakkai Zasshi. 112, 22-29 (2008)). In the retina, the retinal pigment epithelium exists in an environment in which reactive oxygen easily generates (Invest Opthalmol V is Sci. 2006 July 47(7): 3164-3177). […]
After 2 hours of incubation, the cell culture supernatant was removed, and 200 μL of PBS was added to each well and promptly removed. Then, 100 μL of an equivalent mixture of a cell viability detection reagent Cell Titer-Glo (Promega) and PBS was added to each well and the luminescence produced by the reaction with ATP in living cells was measured with a luminometer (GloMax; Promega). The cell viability was calculated from the measured luminescence by the following formula and the cytoprotective effect of GGA against oxidative stress by hydrogen peroxide was examined. Cell viability(%)=100×[(luminescence of base- or GGA-treated group)/(luminescence of non-treated group)]

[1] = test system: IL-8 production by TNF-α in ARPE-19; assay: Inhibitory effect on IL-8 production by TNF-α from retinal pigment epithelial cells; type: cell-based, human; details: all-trans form content 50 μM, 16 h, then TNF-α 4 h, FIG. 5, n=3
Excerpt: Age-related macular degeneration is known to involve the accumulation of drusen under the retinal pigment epithelium. Drusen attract macrophages and macrophages secrete TNF-α. TNF-α acts on the retinal pigment epithelium and its peripheral tissue, and the cells subsequently produce a variety of cytokines and cause inflammation (Mol Vis. 2008 14: 2292-303). Atypical cytokine that is involved in neutrophil migration and spreads inflammation is interleukin-8 (IL-8). In this experiment, the inhibitory effect of GGA on IL-8 production by TNF-α was examined using a human-derived retinal pigment epithelial cell line, ARPE-19. […]
After 4 hours of incubation, 150 μL of the cell culture supernatant was collected and stored at −80° C. […] Then, 100 μL of an equivalent mixture of a cell viability detection reagent Cell Titer-Glo and PBS was added to each well and the luminescence produced by the reaction with ATP in living cells was measured with a luminometer. From the measured luminescence, the cell viability was calculated by the following formula. Cell viability(%)=100×[(luminescence of GGA-treated group)/(luminescence of base-treated group)]
The stored cell culture supernatant was allowed to warm to room temperature, and the IL-8 concentration was quantified with Human CXCL8/IL-8 Quantikine ELISA Kit (R&D Systems). […]

CC(=O)CC/C=C(\C)CC/C=C(\C)CC/C=C(\C)CCC=C(C)C [all-trans form, (5E,9E,13E)-6,10,14,18-tetramethyl-5,9,13,17-nonadecatetrae n-2-one]
cell viability compared with base-treated group (ARPE-19): significantly higher cell viabilities
inhibitory effect on IL-8 production compared with GGA 6:4 [1]: significant inhibitory effect on IL-8 production

From patent US9724312B2, “Agent for the prevention, improvement or treatment of retinal disease” (ROHTO PHARMACEUTICAL CO., LTD., priority 2012, dated 2017)
